Measurements reported in PubChem BioAssay AID179 (DTP/NCI, 2004).
Activity calls are given as the source filed them.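 How the source made its calls: active means compounds giving half or more protection of infected cells from virus-caused growth loss, again on retest; inactive means the rest.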 Where a SMILES comes first, the peptide text is derived from it. [ ]: non-standard residue; d: D form. The star is where a group is joined. Phe(4-NO2) = N[CH](Cc1ccc([N+](=O)[O-])cc1)C(=O)O; Boc = CC(C)(C)OC(=O)*

Tested on: CEM cells HIV-1 protection, formazan growth assay
Experiment: NCI AIDS Antiviral Assay
Details: for IC50: measured here: growth of uninfected CEM cells
How it was run: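 Soluble formazan readout of cell growth; CEM cells ± HIV-1; 5 drug concs. ≥50% protection → retest; ≥50% again = moderately active; reproducible 100% = confirmed active.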

SMILES	EC50 [µM]	IC50 [µM]	outcome
COC(=O)N1CCc2c(nc(N(C)CCO)[nH]c2=O)C1	> 891	708	–
CCCCCCCCCCCCCC/C=C\C(CC(=O)O)C(=O)O (stereo unspecified)	> 15.1	> 15.1	–
CCC(=O)N1C(=O)C(C)C23c4cccc([N+](=O)[O-])c4C(=O)N2CCCN13 (stereo unspecified)	> 692	> 692	–
CC(C)(C)OC(=O)NC(Cc1ccc(O)cc1)C(=O)N1CCCC1C(=O)O (stereo not drawn) (Boc-Tyr-Pro-OH; configuration not given here)	> 661	269	–
CN(C)CCCSc1c2ccccc2nc2cc(NCC(=O)Nc3ccccc3-c3ccccc3NC(=O)CNc3ccc4c(SCCCN(C)C)c5ccccc5nc4c3)ccc12	> 123	58.9	–
CCOC(=O)c1c(N2CCCC2)nsc1Nc1ccccc1	> 200	145	–
CCOC(=O)c1cn2ccccc2c(C(=O)c2cccnc2)c1=N	> 50.1	> 50.1	–
CC1=C(C#N)C2(C(=O)Nc3ccccc32)C(C#N)=C(C)N1	> 162	> 162	–
CC(/C=C/C(=O)c1sc(-n2nc(-c3ccccc3)cc2-c2ccccc2)nc1C)=C\c1ccccc1	> 27.5	> 27.5	–
CCOC(=O)c1nc2ccc(OC)cc2c2c1Cc1ccccc1-2	> 22.4	> 22.4	–
CCOC(=O)N1CCN(c2nc(C)n(-c3ccccc3)c(=S)c2C#N)CC1	> 200	> 200	–
O=[N+]([O-])c1cc(NN=C(c2ccccc2)c2ccccc2)cc([N+](=O)[O-])c1	> 3.98	> 3.98	–
O=[N+]([O-])c1ccc(S(=O)(=O)NN=C2CCCCC2)cc1	> 316	178	–
CNC(=O)OC(C)CN1c2ccccc2Sc2ccc(Cl)cc21 (stereo unspecified)	> 200	26.9	–
O=C1c2ccccc2C(=O)c2sccc21	> 200	7.24	–
CCN(CC)C(=S)SSC(=S)N(CC)CC	> 200	44.7	–
N#CC1=C(O)NC(O)=C(C#N)C12C(=O)Nc1ccccc12	> 794	> 794	–
O=C1c2ccccc2Sc2ccccc2N1CCCN1CCN(c2ccc(F)cc2)CC1	> 200	33.9	–
CC(=O)ON1C(c2ccc([N+](=O)[O-])cc2)OCC2OC(n3cc(C)c(=O)[nH]c3=O)C[C@H]21 (stereo partly specified)	> 200	> 200	–
O=C1C2=Nc3ccccc3C(O)N2c2ccccc21 (stereo unspecified)	> 200	69.2	–
CCOP(C)(=O)C(Nc1ccc(F)cc1)c1ccc(F)cc1 (stereo unspecified)	> 200	166	–
Cc1nn(C(=O)c2ccccc2O)c2c1C(c1ccc3ccccc3c1O)SC(N)=N2 (stereo unspecified)	> 2	1.38	–

SMILES	EC50 [µM]	IC50 [µM]	outcome
COC(=O)[C@@H]1C[C@@]2(C3C=CN(C(=O)C(F)(F)F)C=C3)c3ccccc3N(C(=O)C(F)(F)F)[C@H]2N1C(=O)OC	> 200	166	–
Cn1nc(-c2ccccc2)c(C(=O)/C=C/c2ccccc2)c(N2CCOCC2)c1=O	> 79.4	> 79.4	–
CN(C)CCCOc1c(Br)cc(CCN(C)C)cc1Br	–	–	inactive
CCOC(=O)C(C)(C)/C=C\C(Cl)=C(Cl)Cl	> 200	117	–
N#Cc1c(N)c(C(=O)Nc2ccc(S(N)(=O)=O)cc2)n2c1CCC2	> 200	> 200	–
CC(=O)N(C(=O)CC(=O)N1N=C(c2ccccc2)C(N=Nc2ccccc2[N+](=O)[O-])C1=O)c1ccc(Cl)cc1 (stereo unspecified)	166	> 200	–
CCN(CC)c1ncnc2c1ncn2CCNC(CO)(CO)CO	> 200	> 200	–
CC1=CC(C)(C)N=C2SC(COc3ccccc3)=NN12	> 200	34.7	–
CC1(c2cccc3ccccc23)OC(=O)c2cccc(F)c21 (stereo unspecified)	> 36.3	5.89	–
CCCCCCCCCCCCC(=O)NCC(=O)NC(Cc1ccccc1)C(=O)Oc1ccc([N+](=O)[O-])cc1 (stereo unspecified)	> 200	5.25	–
COc1ccc(NC(=O)CC(=O)N/N=C(\C)c2cc3ccccc3oc2=O)cc1	> 200	102	–
CCOC(=O)c1ccc(CS(=O)(=O)c2ccc(Cl)cc2)c([N+](=O)[O-])c1	> 49	> 49	–
O=S1(=O)CCc2ccccc2C(Cl)C1 (stereo unspecified)	> 407	> 407	–
CN(C)Cc1cc(C(=O)/C=C/c2ccccc2)cc(CN(C)C)c1O	> 200	25.1	–
O=C1CCCC2C3CC(CN12)C1CC(O)CCN1C3 (stereo unspecified)	> 200	> 200	–
CCOC(=O)C(C[Si](C)(C)C)P(=O)(OCC)OCC (stereo unspecified)	> 575	537	–
CSC1(C(=O)O)C2CCC3C2CCC31 (stereo unspecified)	–	–	inactive
NCCCCNCCCNC(=O)c1csc(-c2nc(CCN)sc2Cl)n1	> 302	18.6	–
CC(C)N(C(=O)C12C3C4C5C3C1(C(=O)N(C(C)C)C(C)C)C5C42)C(C)C (stereo unspecified)	> 100	> 100	–
COC(=O)/C=C/C1CC(CCCOc2ccccc2)OC(c2ccccc2)O1 (stereo unspecified)	> 66.1	> 66.1	–
O=C(N/N=C\c1ccncc1)c1ccncc1	> 200	> 200	–
COc1ccc2[nH]c3c(C)c4ccnc(NCCCN(C)CCCNc5ccc6nnn7c8ccccc8c(=O)c5c67)c4c(C)c3c2c1	> 0.1	0.0316	–

SMILES	EC50 [µM]	IC50 [µM]	outcome
CCOC(=O)CCC(NC(=O)C(Cc1ccc([N+](=O)[O-])cc1)NC(=O)OC(C)(C)C)C(=O)NC(CCC(=O)OCC)C(=O)OCC (stereo unspecified) (Boc-[Phe(4-NO2)]-Glu(OEt)-Glu(OEt)-OEt; configuration not given here)	> 200	9.77	–
Nc1ccc(Nc2nc(F)nc(-c3c4ccccc4c4n3CCS4)n2)cc1	> 7.24	3.63	–
O=C(Nc1nccs1)c1cc(C2=CC=CC([N+](=O)[O-])C=C2)nc(=S)[nH]1 (stereo unspecified)	> 95.5	> 95.5	–
C=C1CCC(CC[C@@H]2CC[C@]3(OC2)O[C@@]2(O)CC[C@]3(C)OC2(C)C)C(C)(C)[C@H]1C/C=C1/C(=O)OC[C@@H]1O (stereo partly specified)	–	–	inactive
Cc1nc(N(CCO)CCO)c2sc(=S)n(-c3ccccc3)c2n1	> 10.5	> 10.5	–
NCCCS(=O)(=O)O	> 200	> 200	–
O=C1CC2(CCCC2)C(=O)N1c1cccc([N+](=O)[O-])c1	> 347	275	–
CCC(=O)C12OC3OC(C)(C)OC3C1OC(C)(C)O2 (stereo unspecified)	–	–	inactive
S=c1nc(Cc2ccc(Cl)cc2)[nH][nH]1	> 200	56.2	–
Cc1ccc(S(=O)(=O)OC[C@H]2CC=CC[C@H]2COS(=O)(=O)c2ccc(C)cc2)cc1	> 200	> 200	–
Cc1cn(C2CCCCC2O)c(=O)[nH]c1=O (stereo unspecified)	> 302	> 302	–
CC(=O)SC1CC(=O)C=C2CCC3C4CCC(=O)OC4(C)CCC3C21C (stereo unspecified)	> 200	> 200	–
c1ccc(C2OCC(OC3CCCCO3)CO2)cc1 (stereo unspecified)	> 200	> 200	–
COC(=O)C1(C(=O)OC)N=C(C)OC1C(C)C (stereo unspecified)	> 200	> 200	–
O=C(O)CSc1ccc2c3c(cccc13)C(=O)c1ccccc1-2	> 200	3.09	–
COc1c2c(cc3oc(C)c(C)c(=O)c13)OC(C)(C)C=C2	> 200	81.3	–
N#CN/C(N)=N/C/N=C(\N)NC#N	> 501	> 501	–
CNc1nc(OC)c2c(n1)[n+](C)cn2C	> 200	61.7	–
Cc1cc(O)c(C=O)c2c1C(=O)Oc1c(CO)c(O)c3c(c1O2)C(O)OC3=O (stereo unspecified)	> 57.5	> 57.5	–
COC(=O)CCc1ccc2c(c1)CC1(Cc3ccccc3C1)C2	> 200	107	–
O=C1/C(=C/c2cccc3ccccc23)CCc2ccc([N+](=O)[O-])cc21	> 200	47.9	–
CN(C)c1ccc(/C=C2\C=Cc3ccccc32)cc1F	> 200	120	–

SMILES	EC50 [µM]	IC50 [µM]	outcome
O=C(O)C1=C(C(=O)Nc2ccccc2)C2C=CC1C2 (stereo unspecified)	> 977	214	–
O=c1c2ccccc2nc2sc(/N=C/C=C/c3ccccc3)nn12	> 200	41.7	–
O=c1[nH]c(-c2ccc(-c3nc4cc([N+](=O)[O-])ccc4c(=O)[nH]3)cc2)nc2cc([N+](=O)[O-])ccc12	> 7.94	> 7.94	–
c1ccc2c3c([nH]c2c1)C1CCCN1CC3 (stereo unspecified)	> 617	174	–
CCOC(=O)[C@@]12C3C=CC(CC3)[C@]1(C(=O)c1ccccc1)C(=O)C(=O)N2c1ccccc1 (stereo partly specified)	> 200	110	–
COC1(OC)N=C(N)C2(C#N)/C(=N/N(C)C)CC(C)C12C#N (stereo unspecified)	> 200	> 200	–
COc1ccc(/C=C2/C(=O)N(C(=O)c3ccccc3O)N=C2C)cc1OC	> 70.8	0.145	–
Cc1cc(C)c(C(=O)O)c(N)c1O	–	–	inactive
CS/C=C\C(=O)O[C@H]1C[C@@H]2[C@@H](O)c3occ(C)c3C[C@]2(C)[C@@H](C)C1	> 200	30.2	–
CCOC(=O)c1[nH]cc(C)c1-c1cccn1-c1ccc(Cl)cc1[N+](=O)[O-]	> 200	30.9	–
COc1cc(OC)c(C2(c3c(OC(C)C)c(=O)c3=O)SCCCS2)cc1OC	> 200	170	–
O=C(O)c1ccccc1-c1c2cc(I)c(=O)c(I)c-2oc2c(I)c(O)c(I)cc12	> 58.9	10.7	–
CCN(CC)C1=NS(=O)(=O)c2ccccc2C(SC)=C1C	> 275	> 275	–
COc1ccc([N+](=O)[O-])c(/C(C#N)=C/c2ccccc2)c1	> 200	12.3	–
C(=C1/NC(c2ccccc2)=Nc2ccccc21)/c1ccccc1	> 6.76	> 6.76	–
CNNC1=NS(=O)(=O)c2cc(C(=O)OC)c(Cl)cc2S1	> 200	> 200	–
O=c1c2ccccc2nc(-c2ccccc2)n1NCC1(O)OCC(O)C(O)C1O (stereo unspecified)	–	–	inactive
CN(C)c1nncc2[nH]cnc12	> 200	> 200	–
CC/C(CC(=O)CCC(=O)Nc1ccc(C)c(C)c1)=N\NC(=O)c1cc2ccccc2cc1O	> 15.8	10	–
O=C(OCc1ccccc1)C(Cc1ccccc1)N(Cc1ccccc1)Cc1ccccc1 (stereo unspecified)	> 200	> 200	–
